Measurements reported in ChEMBL document CHEMBL6109152, “Harnessing the SPOP E3 Ubiquitin Ligase via a Bridged Proteolysis Targeting Chimera (PROTAC) Strategy for Targeted Protein Degradation” (J Med Chem, 2025).
The source made the active and inactive calls. The calls are words filed in the database; no cut-off is given here.

Tests used:
[1] = biological target: T1, Speckle-type POZ protein-Bromodomain-containing protein 4 (Homo sapiens, UniProt O60885+O43791); test: PROTAC activity at SPOP/BRD4-S in human HT-29 cells assessed as induction of BRD4 short isoform degradation at 5 uM measured after 16 to 72 hrs by Western blotting analysis; assay type: cell-based; conditions: time 16-72 hrs
[2] = biological target: T1, Speckle-type POZ protein-Bromodomain-containing protein 4; test: PROTAC activity at SPOP/BRD4-S in human HT-29 cells assessed as induction of BRD4 short isoform degradation at 0.5 to 5 uM incubated for 24 hrs by Western blotting analysis; assay type: cell-based; conditions: dose 0.5-5 µM
[3] = biological target: T1, Speckle-type POZ protein-Bromodomain-containing protein 4; test: PROTAC activity at SPOP/BRD4-L in human HT-29 cells assessed as induction of BRD4 long isoform degradation by measuring fold change at 1.25 uM incubated for 24 hrs by Western blotting analysis (reference value: 1.00); assay type: cell-based
[4] = biological target: T1, Speckle-type POZ protein-Bromodomain-containing protein 4; test: PROTAC activity at SPOP/BRD4-L in human HT-29 cells assessed as induction of BRD4 long isoform degradation at 10 uM incubated for 24 hrs by Western blotting analysis relative to control; assay type: cell-based
HT-29 [5] = test: Downregulation of c-MYC mRNA level in human HT-29 cells at 5 to 10 uM incubated for 24 hrs by RT-qPCR analysis; assay type: functional, cell-based; conditions: dose 5-10 µM
[6] = biological target: T2, Bromodomain-containing protein 4 (Homo sapiens, UniProt O60885); test: Inhibition of BRD4 in human HT-29 cells assessed as decrease in c-MYC protein level by measuring fold change at 0.156 uM incubated for 24 hrs by Western blot analysis (reference value: 1.00); assay type: cell-based
[7] = biological target: T3, Speckle-type POZ protein-Bromodomain-containing protein 3 (Homo sapiens) (UniProt Q15059+O43791); test: PROTAC activity at SPOP/BRD3 in human HT-29 cells assessed as induction of BRD3 degradation at 5 uM measured after >=48 hrs by Western blot analysis; assay type: cell-based
[8] = biological target: T1, Speckle-type POZ protein-Bromodomain-containing protein 4; test: PROTAC activity at SPOP/BRD4-L in human HT-29 cells assessed as induction of BRD4 long isoform degradation by measuring fold change at 5 uM incubated for 24 hrs by Western blotting analysis (reference value: 1.00); assay type: cell-based
[9] = biological target: Speckle-type POZ protein-Bromodomain-containing protein 2 (Homo sapiens) (UniProt P25440+O43791); test: PROTAC activity at SPOP/BRD2 in human HT-29 cells assessed as induction of BRD2 degradation by measuring fold change at 10 uM incubated for 24 hrs by Western blot analysis (reference value: 1.00); assay type: cell-based
[10] = biological target: T4, Histone-lysine N-methyltransferase EHMT1 (Homo sapiens, UniProt Q9H9B1); test: Binding affinity to recombinant GLP-SET domain (unknown origin) assessed as assessed as dissociation constant by ITC analysis
T4 sequence (Q9H9B1 whole entry): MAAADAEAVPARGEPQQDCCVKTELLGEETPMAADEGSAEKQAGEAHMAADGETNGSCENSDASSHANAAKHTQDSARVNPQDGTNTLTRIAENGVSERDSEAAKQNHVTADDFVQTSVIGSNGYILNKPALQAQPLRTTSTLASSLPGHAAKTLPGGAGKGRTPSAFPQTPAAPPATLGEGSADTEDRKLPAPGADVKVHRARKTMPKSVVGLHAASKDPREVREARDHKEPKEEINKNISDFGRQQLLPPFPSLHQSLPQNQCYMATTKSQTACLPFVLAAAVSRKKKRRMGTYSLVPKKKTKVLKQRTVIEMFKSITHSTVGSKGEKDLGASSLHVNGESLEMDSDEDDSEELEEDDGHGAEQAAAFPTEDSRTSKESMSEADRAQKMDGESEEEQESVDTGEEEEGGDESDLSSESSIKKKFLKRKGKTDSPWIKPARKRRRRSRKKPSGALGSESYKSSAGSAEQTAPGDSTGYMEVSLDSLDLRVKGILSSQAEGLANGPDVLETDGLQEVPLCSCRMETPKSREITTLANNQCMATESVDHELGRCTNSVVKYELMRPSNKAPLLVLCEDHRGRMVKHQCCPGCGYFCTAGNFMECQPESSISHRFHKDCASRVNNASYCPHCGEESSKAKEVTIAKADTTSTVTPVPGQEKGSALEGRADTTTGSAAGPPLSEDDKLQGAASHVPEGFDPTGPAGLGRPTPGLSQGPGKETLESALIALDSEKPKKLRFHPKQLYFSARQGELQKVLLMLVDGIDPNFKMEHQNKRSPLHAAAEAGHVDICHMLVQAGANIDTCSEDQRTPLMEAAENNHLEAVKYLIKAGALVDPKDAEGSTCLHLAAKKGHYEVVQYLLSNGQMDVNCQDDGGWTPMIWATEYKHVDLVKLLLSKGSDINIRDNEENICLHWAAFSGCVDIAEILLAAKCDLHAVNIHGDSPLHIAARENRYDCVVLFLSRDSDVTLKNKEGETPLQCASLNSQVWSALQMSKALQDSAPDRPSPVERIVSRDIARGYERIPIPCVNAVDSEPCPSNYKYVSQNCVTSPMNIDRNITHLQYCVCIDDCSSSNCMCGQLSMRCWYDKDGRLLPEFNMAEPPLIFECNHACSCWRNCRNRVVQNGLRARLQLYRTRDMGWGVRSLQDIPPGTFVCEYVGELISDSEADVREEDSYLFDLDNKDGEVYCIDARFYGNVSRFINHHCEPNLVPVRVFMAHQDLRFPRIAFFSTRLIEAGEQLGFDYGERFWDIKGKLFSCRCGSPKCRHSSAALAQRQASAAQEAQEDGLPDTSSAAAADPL

[11] = biological target: T1, Speckle-type POZ protein-Bromodomain-containing protein 4; test: PROTAC activity at SPOP/BRD4-L in human HT-29 cells assessed as induction of BRD4 long isoform degradation at 0.5 to 5 uM incubated for 24 hrs by Western blotting analysis; assay type: cell-based; conditions: dose 0.5-5 µM
[12] = biological target: T1, Speckle-type POZ protein-Bromodomain-containing protein 4; test: PROTAC activity at SPOP/BRD4-S in human HT-29 cells assessed as induction of BRD4 short isoform degradation at 5 uM by Western blotting analysis; assay type: cell-based; conditions: time 2-72 hrs
[13] = biological target: T1, Speckle-type POZ protein-Bromodomain-containing protein 4; test: PROTAC activity at SPOP/BRD4-S in human HT-29 cells assessed as induction of BRD4 short isoform degradation by measuring fold change at 1.25 uM incubated for 24 hrs by Western blotting analysis (reference value: 1.00); assay type: cell-based
[14] = biological target: T3, Speckle-type POZ protein-Bromodomain-containing protein 3 (Homo sapiens); test: PROTAC activity at SPOP/BRD3 in human HT-29 cells assessed as induction of BRD3 degradation by measuring fold change at 0.625 uM incubated for 24 hrs by Western blot analysis (reference value: 1.00); assay type: cell-based
[15] = biological target: T1, Speckle-type POZ protein-Bromodomain-containing protein 4; test: PROTAC activity at SPOP/BRD4-L in human MDA-MB-231 cells assessed as induction of BRD4 long isoform degradation at 0.1 to 5 uM incubated for 24 hrs by Western blotting analysis; assay type: cell-based; conditions: dose 0.1-5 µM
[16] = biological target: T2, Bromodomain-containing protein 4; test: Inhibition of BRD4 in human HT-29 cells assessed as decrease in c-MYC protein level by measuring fold change at 1.25 uM incubated for 24 hrs by Western blot analysis (reference value: 1.00); assay type: cell-based
HT-29 [17] = test: Effect on BRD3 mRNA level in human HT-29 cells at 1 to 10 uM incubated for 24 hrs by RT-qPCR analysis; assay type: functional, cell-based; conditions: dose 1-10 µM

T1 sequence (O43791 whole entry, looked up, other chains not shown, canonical isoform): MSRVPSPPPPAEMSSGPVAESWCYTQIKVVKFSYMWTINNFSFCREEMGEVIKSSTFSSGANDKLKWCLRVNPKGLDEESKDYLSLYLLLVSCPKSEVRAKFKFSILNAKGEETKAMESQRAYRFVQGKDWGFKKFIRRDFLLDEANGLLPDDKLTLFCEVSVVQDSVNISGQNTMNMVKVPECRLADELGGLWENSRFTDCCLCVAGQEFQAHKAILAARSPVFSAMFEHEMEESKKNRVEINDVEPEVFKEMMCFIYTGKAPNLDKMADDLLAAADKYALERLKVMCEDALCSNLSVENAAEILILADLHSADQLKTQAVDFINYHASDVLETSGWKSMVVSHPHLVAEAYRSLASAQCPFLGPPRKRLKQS
T3 sequence (O43791 whole entry, looked up, canonical isoform): as the sequence (O43791 whole entry, looked up, other chains not shown, canonical isoform) above
T3 sequence (Q15059 whole entry, looked up, canonical isoform): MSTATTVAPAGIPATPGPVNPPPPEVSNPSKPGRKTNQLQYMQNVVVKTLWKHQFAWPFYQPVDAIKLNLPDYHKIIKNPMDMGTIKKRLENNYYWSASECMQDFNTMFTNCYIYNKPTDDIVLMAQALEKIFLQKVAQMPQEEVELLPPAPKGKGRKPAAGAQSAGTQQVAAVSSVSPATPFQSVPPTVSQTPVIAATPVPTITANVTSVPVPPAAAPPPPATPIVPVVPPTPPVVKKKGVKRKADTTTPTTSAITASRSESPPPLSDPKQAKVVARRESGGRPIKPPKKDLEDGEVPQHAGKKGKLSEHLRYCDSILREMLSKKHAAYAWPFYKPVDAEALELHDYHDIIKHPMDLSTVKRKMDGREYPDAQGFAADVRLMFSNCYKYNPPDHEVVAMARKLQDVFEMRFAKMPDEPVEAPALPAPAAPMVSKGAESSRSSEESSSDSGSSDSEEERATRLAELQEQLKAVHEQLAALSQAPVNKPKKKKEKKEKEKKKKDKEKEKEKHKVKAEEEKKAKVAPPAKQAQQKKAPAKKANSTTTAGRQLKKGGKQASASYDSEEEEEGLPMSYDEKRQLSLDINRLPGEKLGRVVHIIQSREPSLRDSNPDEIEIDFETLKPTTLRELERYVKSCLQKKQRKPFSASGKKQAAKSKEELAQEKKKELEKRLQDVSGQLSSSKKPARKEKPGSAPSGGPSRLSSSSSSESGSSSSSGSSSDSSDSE
Sequence of Speckle-type POZ protein-Bromodomain-containing protein 2 (Homo sapiens) (O43791 whole entry, looked up, the tested form may be a part): as the sequence (O43791 whole entry, looked up, other chains not shown, canonical isoform) above
Sequence of Speckle-type POZ protein-Bromodomain-containing protein 2 (Homo sapiens) (P25440 whole entry, looked up, the tested form may be a part): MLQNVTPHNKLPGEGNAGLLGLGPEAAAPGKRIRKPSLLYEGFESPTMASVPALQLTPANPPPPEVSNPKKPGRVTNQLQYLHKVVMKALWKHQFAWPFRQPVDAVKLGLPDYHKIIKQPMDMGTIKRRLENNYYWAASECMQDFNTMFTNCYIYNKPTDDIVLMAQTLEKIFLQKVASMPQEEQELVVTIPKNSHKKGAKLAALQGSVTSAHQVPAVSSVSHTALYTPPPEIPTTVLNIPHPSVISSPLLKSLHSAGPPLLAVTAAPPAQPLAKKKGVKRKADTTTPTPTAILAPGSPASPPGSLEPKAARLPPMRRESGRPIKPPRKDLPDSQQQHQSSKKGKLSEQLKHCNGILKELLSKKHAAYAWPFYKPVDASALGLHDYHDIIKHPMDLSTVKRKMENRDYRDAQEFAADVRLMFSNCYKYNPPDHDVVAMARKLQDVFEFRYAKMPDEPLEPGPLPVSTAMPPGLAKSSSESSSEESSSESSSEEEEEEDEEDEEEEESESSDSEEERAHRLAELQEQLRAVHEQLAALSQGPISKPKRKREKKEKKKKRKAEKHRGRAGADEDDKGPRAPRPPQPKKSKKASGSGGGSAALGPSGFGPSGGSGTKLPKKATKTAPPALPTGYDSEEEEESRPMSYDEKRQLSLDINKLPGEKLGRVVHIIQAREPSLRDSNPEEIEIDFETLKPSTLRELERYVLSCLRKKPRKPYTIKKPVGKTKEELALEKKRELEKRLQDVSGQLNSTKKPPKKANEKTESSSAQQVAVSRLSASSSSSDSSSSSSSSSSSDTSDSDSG

Which results are given for `COc1cc2c(NC3CCN(CCCC(=O)NCCCCCCCCCCNC(=O)C[C@@H]4N=C(c5ccc(Cl)cc5)c5c(sc(C)c5C)-n5c(C)nnc54)CC3)cc(N3CCOCC3)nc2cc1OCCCN1CCCC1`?
Activity [1]: Active; Activity [2]: Active; fold change (FC) [3]: 1.2; Activity [4]: 50%; Activity (HT-29 [5]): Active; fold change (FC) [6]: 1; Activity [7]: Active; fold change (FC) [8]: 0.7; fold change (FC) [9]: 0.7; Kd [10]: 306 nM; Activity [11]: inactive; Activity [12]: Time-dependent-effect; fold change (FC) [13]: 0.8; fold change (FC) [14]: 0.9; Activity [15]: Active; fold change (FC) [16]: 0.4; Activity (HT-29 [17]): inactive
